“Also recorded” adds a separate entry of the source.
Tests used:
[1] = target: T1, μ-opioid receptors (MOP receptors) (Mus musculus, UniProt P42866); type: cell-based; details: 2% βCD 1 h 37° C.; reversed by βCD-cholesterol complexes
T1 construct: expressed in transfected cells; host or cells: HEK293
Protocol: Briefly, HEK-MOP cells were pre-incubated with 2% (2-hydroxypropyl)-β-cyclodextrin (βCD) for 1 h at 37° C. to deplete cholesterol from caveloae in the cell membrane. Cells were washed with DMEM and then utilized in the forskolin-stimulated cAMP assay as described above. […] Cells were washed with DMEM and then utilized in the forskolin-stimulated cAMP assay as described above.

MOP receptor = target: T2, MOP receptor (Mus musculus, UniProt P42866); assay: Displacement of specific binding of [3H]-DAMGO from membranes of MOP-transfected HEK293 cells
T2 construct: expressed in transfected cells; host or cells: HEK293 (membranes of MOP-HEK cells)
Protocol: A binding assay was performed to determine whether Compound 1 binds at the MOP receptor.
Stably transfected MOP-HEK cells were plated in a 3×10 cm dish and washed with (3×5 mL) 50 mM Tris-HCl (pH 7.4) when sufficiently confluent. The cells were scraped off the dish in 1.5 mL 50 mM Tris-HCl (pH 7.4) using a transfer pipette and place in 15 mL falcon tubes. The cells were sonicated for a 5 second burst and placed on ice. The protein concentration was estimated. The cells were transferred to a 1.5 mL eppendorf tube and centrifuged at 18,000 rcf for 30 minutes at 4° C. The supernatant was removed and the cells resuspended in 50 mM Tris-HCl (pH 7.4) and 1 mg/mL BSA. An aliquot containing 30-50 μg/200 μL protein was taken and [^3H]DAMGO was added (200 μL in Tris-HCl, pH 7.4) with varying concentrations of unlabelled [D-Ala^2, N-Me-Phe^4, Gly^5-ol]-enkephalin acetate (DAMGO) or Compound 1 (200 μL in Tris-HCl, pH 7.4), total volume 600 μL. The solution was incubated for 1 hour at room temperature with slow rotation.

STZ-diabetic rats [2] = assay: Behavioural side-effects in STZ-diabetic rats; type: in vivo; details: Compound 1 800 pmol/kg s.c.; morphine 21 μmol/kg
[3] = test system: non-diabetic control rats; assay: Tolerance development (7-day continuous s.c. infusion, 2-day washout) in non-diabetic control rats, von Frey PWT; type: in vivo
STZ-diabetic rats [4] = assay: Tolerance development (7-day s.c. infusion, 2-day washout) in STZ-diabetic rats, von Frey PWT; type: in vivo
[5] = target: δ-opioid receptors (DOP receptors) (Mus musculus, UniProt P32300); assay: Forskolin-stimulated cAMP responses in DOP-transfected HEK293 cells; details: DOP-transfected HEK293, entire concentration range tested
Protocol: Non-transfected HEK293 cells were used as a control. Transfected HEK293 cells were maintained in Dulbecco's Modified Eagle's Medium (DMEM) supplemented with 10% fetal bovine serum (FBS) and geneticin (1 mg/mL). Non-transfected HEK293 cells were maintained in DMEM supplemented with 10% FBS.
The functional interaction between opioids and opioid-like compounds and specific opioid G-protein-coupled receptors (GPCRs) was assessed by measuring changes in intracellular cAMP levels relative to basal levels. The Alphascreen cAMP functional assay measures agonist and antagonist activity of GPCRs by stimulating cells to either increase or decrease intracellular cAMP levels. The assay was performed using an Alphascreen cAMP kit according to the manufacturer's instructions. […]
Detection of cAMP is based on the competition between intracellular cAMP and biotinylated cAMP linked streptavidin-coated donor beads for anti-cAMP conjugated acceptor beads. When the donor and acceptor beads are in close proximity visible light emitted at 520-620 nm is detected using the Envision multilabel plate reader. […]
The assay performance was optimized by using cells at low passage number and at 70-90% confluence. […] The cell concentration was determined using a haemocytometer. […] Note that the cell number will influence the cAMP levels measured before (basal) and after adenylyl cyclase activation. […]

[6] = drug-naïve non-diabetic rats, first s.c. bolus
[7] = non-diabetic rats, second s.c. bolus after 7-day infusion and 2-day washout
[8] = non-diabetic rats, second s.c. bolus after washout
[9] = STZ-diabetic rats, second bolus Compound 1 800 pmol/kg after 2-day washout
[10] = naïve STZ-diabetic rats, first s.c. bolus

T1 sequence (P42866 whole entry): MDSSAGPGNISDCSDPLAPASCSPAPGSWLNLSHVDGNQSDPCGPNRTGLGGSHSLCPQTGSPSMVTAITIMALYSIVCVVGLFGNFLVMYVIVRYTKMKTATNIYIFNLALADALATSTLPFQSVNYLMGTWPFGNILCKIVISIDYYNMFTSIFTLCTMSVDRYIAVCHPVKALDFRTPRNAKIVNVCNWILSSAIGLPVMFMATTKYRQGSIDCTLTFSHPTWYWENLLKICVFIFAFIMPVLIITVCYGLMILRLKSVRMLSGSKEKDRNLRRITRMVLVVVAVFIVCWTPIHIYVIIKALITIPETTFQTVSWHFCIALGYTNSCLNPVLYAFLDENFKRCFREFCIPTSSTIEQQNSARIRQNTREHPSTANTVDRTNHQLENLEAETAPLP
Chain of δ-opioid receptors (DOP receptors) (P32300 whole entry): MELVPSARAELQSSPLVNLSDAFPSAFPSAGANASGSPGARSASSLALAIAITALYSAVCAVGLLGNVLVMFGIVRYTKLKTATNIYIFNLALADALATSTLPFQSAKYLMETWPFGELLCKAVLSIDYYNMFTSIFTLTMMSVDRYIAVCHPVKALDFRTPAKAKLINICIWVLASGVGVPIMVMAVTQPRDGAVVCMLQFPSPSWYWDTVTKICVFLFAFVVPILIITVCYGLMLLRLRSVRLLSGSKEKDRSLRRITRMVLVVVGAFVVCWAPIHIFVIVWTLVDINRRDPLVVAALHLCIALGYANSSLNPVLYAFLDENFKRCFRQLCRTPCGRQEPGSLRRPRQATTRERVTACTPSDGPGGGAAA
T2 sequence (P42866 whole entry): as the sequence (P42866 whole entry) above

Cc1c(C=O)no[n+]1[O-] [Compound 1, 4-formyl-3-methyl-1,2,5-oxadiazole-2-oxide]
effect of lipid raft/caveolae depletion on cAMP effects [1]: inhibited the effects of Compound 1; also recorded: sensitive to removal of lipid rafts/caveolae
binding to MOP receptors ([3H]-DAMGO displacement) (MOP receptor): does not bind significantly
behavioural side-effects at highest dose (STZ-diabetic rats [2]): no discernable side-effects
mean duration of action [3, 6]: ~3 h
time of peak antinociception post-dosing [3, 6]: 1 h
mean (±SEM) peak PWT ([3]; drug-naïve non-diabetic rats, Compound 1 8 fmol/kg, morphine 2.8 mmol/kg (so in the source) s.c. bolus): 15.9 ± 0.3 g
tolerance after 7-day continuous s.c. infusion ([3]; non-diabetic rats): completely tolerant
antinociception after second bolus, naïve vs "tolerant" rats ([3]; non-diabetic rats, after 2-day washout): did not differ significantly
mean (±SEM) peak PWT [3, 7]: 15.6 (±0.7) g
mean (±SEM) peak ΔPWT [3, 7]: 4.2 (±0.6) g
mean duration of action [3, 8]: ~3 h
time of peak antinociception post-dosing [3, 8]: 1 h
tolerance after 7-day s.c. infusion (STZ-diabetic rats [4]; STZ-diabetic rats): completely tolerant
anti-allodynia after second bolus (tolerance status) (STZ-diabetic rats [4]; STZ-diabetic rats, after 2-day washout, morphine 10.5 μmol/kg, Compound 1 800 pmol/kg): significant reversal of tolerance
mean duration of action (STZ-diabetic rats [4]; [9]): 2 to 3 h
time of peak anti-allodynia post-dosing (STZ-diabetic rats [4]; [9]): ~1 h
mean duration of action (STZ-diabetic rats [4]; [10]): ~4 h
time of peak anti-allodynia post-dosing (STZ-diabetic rats [4]; [10]): 1 h
mean (±SEM) peak PWT (STZ-diabetic rats [4]; naïve STZ-diabetic rats, Compound 1 800 pmol/kg, morphine 10.4 μmol/kg s.c. bolus): 11.6 (±0.6) g
inhibition of forskolin-stimulated cAMP formation [5]: did not appear to inhibit
